Assay: 1O2 production in solutions, SOSG indicator, X-ray irradiation
Conditions: either with or without X-ray
Procedure: 1 mL of 0.05 mg M-SAO@SiO2/mL was added in a quartz cuvette (equilibrated with air at room temperature) containing 1 μM of SOSG. For controls, SAO, MC540, and water were analyzed. The solutions were irradiated by X-ray (at an irradiance of 1 Sv/h for 20 min, with a 1-min intermission after each 5-min irradiation cycle. The fluorescence signals (ex/em: 504/525 nm) were measured on a Hitachi F-7000 fluorescence spectrophotometer.
There is a significant overlap between the XEOL of SAO and the excitation wavelength of MC540 (FIG. 9A). Therefore, the ability of M-SAO@SiO2 nanoparticles irradiated by X-ray to relay energy in the form of visible photons to MC540 and as a result, producing ^1O2 was investigated. A common ^1O2 indicator, singlet oxygen sensor green (SOSG, Invitrogen) was used to investigate this effect. SOSG is a fluorescent compound which undergoes a structural change in the presence of ^1O2. The process is accompanied by an increase of fluorescence (ex/em: 504/525 nm). Therefore, by measuring the fluorescence change, the ^1O2 generation in solutions or cells can be monitored. Using SOSG, ^1O2 generation with a M-SAO@SiO2 nanoparticle solution (50 μg/mL) under X-ray irradiation was studied (1 Sv/h, FIG. 9B). Compared to the background, the intensity of 525 nm fluorescence was increased by 8, 25, 35, and 45% after 5, 10, 15, and 20 min X-ray irradiation, respectively (FIG. 9B).

## CCCCN1C(=O)C(=C/C=C/C=C2\Oc3ccccc3N2CCCS(=O)(=O)[O-])C(=O)N(CCCC)C1=S.[Na+] [MC540, merocyanine 540]
  increase in fluorescence (1O2, SOSG): minimal increase in fluorescence
